Structures can show the parent of a compound that is named as a salt.

In the assay the target is human recombinant ATX (Homo sapiens (Human), UniProt Q13822). Put plainly: Autotaxin (ATX) activity Quanta Red assay. The assay is classed as biochemical. To be noted: 15 μM Rac-1-Palmitoyl-glycero-3-phosphocholine, 2 hours room temperature, determined in duplicate. On the procedure: The ATX enzyme assay (Quanta Red assay) described in accompanying Example section may be used to measure the pharmacological effects of the compounds of the present invention.
Autotaxin (ATX) Activity Quanta Red Assay
Measuring ATX activity using an enzyme coupled Quanta Red assay (Thermo Scientific—Pierce Protein Research Products, Product #15159) was determined as follows. 8 μL human recombinant ATX (final concentration 0.8 μg/mL) in 1× Assay buffer containing 50 mM Tris-HCl (pH 8.0), 5 mM CaCl2 was added to an opaque black flat-bottom 384-well plate (Corning, #3575) containing 2 μL test compound in 40% DMSO (4% final DMSO concentration). 10 μL of Quanta Red, Horseradish peroxidase (HRP), Choline Oxidase (CO), Rac-1-Palmitoyl-glycero-3-phosphocholine solution (final concentration 1:250 for Quanta Red, 0.5units/ml HRP, 0.5units/ml CO, 15 μM Rac-1-Palmitoyl-glycero-3-phosphocholine) in 1× assay buffer (as described previously) was added to each well to start the reaction and the plate was incubated at room temperature for 2 hours. The reaction was stopped after 2 hours with a 20 μL addition of Quanta Red Stop solution (1:20 dilution in distilled water). The above-described mixture with DMSO alone was used as a positive control whereas that with DMSO alone without ATX was taken as a negative control.
For each test compound, ten concentrations were measured covering a range of 6.1 nM to 120 μM to determine IC50 values. The top concentration was decreased to 1.2 μM when a test compound's IC50 value was evaluated in low nanomolar range. Fluorescence was determined in a BMG Labtech Pherastar plus plate reader ([…]). Data were analysed using Excel fit software. IC50 values were determined in duplicate.
For `O=C(Nc1nnc(CCC2CCCC2)s1)C1CC(=O)N(c2ccc(CN3CCCOCC3)cc2)C1` (stereo not shown) [Compound F122, N-[5-(2-cyclopentylethyl)-1,3,4-thiadiazol-2-yl]-1-[4-(1,4-oxazepan-4-ylmethyl)phenyl]-5-oxo-pyrrolidine-3-carboxamide], the IC50 – broadly, the concentration that inhibits the measured activity by half – was determined as 4 nM.
The figure for `O=C(Nc1nnc(CCC2CCCC2)s1)C1CC(=O)N(c2ccc(CN3CCC(F)(F)CC3)cc2)C1` (stereo not shown) [Compound F123, N-[5-(2-cyclopentylethyl)-1,3,4-thiadiazol-2-yl]-1-[4-[(4,4-difluoro-1-piperidyl)methyl]phenyl]-5-oxo-pyrrolidine-3-carboxamide] is 5 nM; for `CN(Cc1ccc(N2C[C@@H](C(=O)Nc3ccc(CCc4ccc(F)cc4)nn3)CC2=O)cc1)C1CCOCC1` [Compound F126, (3S)-N-[6-[2-(4-fluorophenyl)ethyl]pyridazin-3-yl]-1-[4-[[methyl(tetrahydropyran-4-yl)amino]methyl]phenyl]-5-oxo-pyrrolidine-3-carboxamide] it is 8 nM; for `CCN(Cc1ccc(N2CC(C(=O)Nc3nnc(CCc4ccc(Cl)cc4)s3)CC2=O)cc1)C(C)C` (stereo not shown) [Compound F127, N-[5-[2-(4-chlorophenyl)ethyl]-1,3,4-thiadiazol-2-yl]-1-[4-[[ethyl(isopropyl)amino]methyl]phenyl]-5-oxo-pyrrolidine-3-carobxamide] it is 9 nM.
With `O=C(NC1CC(=O)N(c2ccc(CN3CCOCC3)cc2)C1)c1nnc(CCc2ccc(Cl)cc2)s1` (stereo not shown) [Compound F128, 5-[2-(4-chlorophenyl)ethyl]-N-[1-[4-(morpholino-methyl)phenyl]-5-oxo-pyrrolidine-3-yl]-1,3,4-thiadiazole-2-carboxamide] the figure was 1 nM; with `O=C(NC1CC(=O)N(c2ccc(CN3CCCOCC3)cc2)C1)c1nnc(CCc2ccc(Cl)cc2)s1` (stereo not shown) [Compound F129, 5-[2-(4-chlorophenyl)ethyl]-N-[1-[4-(1,4-oxazepan-4-ylmethyl)phenyl]-5-oxo-pyrrolidin-3-yl]-1,3,4-thiadiazole-2-carboxamide], 2 nM; with `O=C(N[C@@H]1CC(=O)N(c2ccc(CN3CCOCC3)cc2)C1)c1nnc(CCc2ccc(Cl)cc2)s1` [Compound F130, 5-[2-(4-chlorophenyl)ethyl]-N-[(3R)-1-[4-(morpholinomethyl)phenyl]-5-oxo-pyrrolidine-3-yl]-1,3,4-thiadiazole-2-carboxamide], 2 nM.
The figure for `O=C(N[C@@H]1CCN(c2ccc(CN3CCOCC3)cc2)C1)c1nnc(CCc2ccc(Cl)cc2)s1` [Compound F131, 5-[2-(4-chloro-phenyl)-ethyl]-[1,3,4]thiadiazole-2-carboxylic acid [(R)-1-(4-morpholin-4-ylmethyl-phenyl)-pyrrolidin-3-yl]-amide hydrochloride] is 2 nM; for `O=C(NC1CC(=O)N(c2ccc(CN3CCCCCC3)cc2)C1)c1nnc(CCc2ccc(Cl)cc2)s1` (stereo not shown) [Compound F134, N-[1-[4-(azepan-1-ylmethyl)phenyl]-5-oxo-pyrrolidin-3-yl]-5-[2-(4-chlorophenyl)ethyl]-1,3,4-thiadiazole-2-carboxamide] it is 3 nM; for `O=C(N[C@H]1CC(=O)N(c2ccc(CN3CCOCC3)cc2)C1)c1nnc(CCc2ccc(Cl)cc2)s1` [Compound F135, 5-[2-(4-chlorophenyl)ethyl]-N-[(3S)-1-[4-(morpholinomethyl)phenyl]-5-oxo-pyrrolidin-3-yl]-1,3,4-thiadiazole-2-carboxamide] it is 3 nM.
In the case of `CC1CCN(Cc2ccc(N3CC(NC(=O)c4nnc(CCc5ccc(Cl)cc5)s4)CC3=O)cc2)CC1` (stereo not shown) [Compound F136, 5-[2-(4-chlorophenyl)ethyl]-N-[1-[4-[(4-methyl-1-piperidyl)methyl]phenyl]-5-oxo-pyrrolidin-3-yl]-1,3,4-thiadiazole-2-carboxamide], the IC50 is 4 nM.
On to `CC1CCN(Cc2ccc(N3C[C@@H](NC(=O)c4nnc(CCc5ccc(Cl)cc5)s4)CC3=O)cc2)CC1` [Compound F137, 1-{4-[(S)-4-({5-[2-(4-chloro-phenyl)-ethyl]-[1,3,4]thiadiazole-2-carbonyl}-amino)-2-oxo-pyrrolidin-1-yl]-benzyl}-4-methyl-piperidine hydrochloride], for which the IC50 stood at 4 nM.
With `CC1CCN(Cc2ccc(N3C[C@H](NC(=O)c4nnc(CCc5ccc(Cl)cc5)s4)CC3=O)cc2)CC1` [Compound F138, 5-[2-(4-chlorophenyl)ethyl]-N-[(3R)-1-[4-[(4-methyl-1-piperidyl)methyl]phenyl]-5-oxo-pyrrolidin-3-yl]-1,3,4-thiadiazole-2-carboxamide] the figure was 5 nM.
With `O=C(NC1CC(=O)N(c2ccc(CN3CC4CC4C3)cc2)C1)c1nnc(CCc2ccc(Cl)cc2)s1` (stereo not shown) [Compound F140, N-[1-[4-(3-azabicyclo[3.1.0]hexan-3-ylmethyl)phenyl]-5-oxo-pyrrolidin-3-yl]-5-[2-(4-chlorophenyl)ethyl]-1,3,4-thiadiazole-2-carboxamide], the concentration for half-maximal inhibition (IC50) came out at 5 nM.
Take `COCCN(C)Cc1ccc(N2CC(NC(=O)c3nnc(CCc4ccc(Cl)cc4)s3)CC2=O)cc1` (stereo not shown) [Compound F142, 5-[2-(4-chlorophenyl)ethyl]-N-[1-[4-[[2-methoxyethyl(methyl)amino]methyl]phenyl]-5-oxo-pyrrolidin-3-yl]-1,3,4-thiadiazole-2-carboxamide]: the IC50 amounted to 9 nM.
With `O=C(N[C@@H]1CC(=O)N(c2ccc(CN3CCCCC3)cc2)C1)c1cc(CCc2ccc(Cl)cc2)on1` [Compound F143, 5-[2-(4-chlorophenyl)ethyl]-N-[(3R)-5-oxo-1-[4-(1-piperidylmethyl)phenyl]pyrrolidin-3-yl]isoxazole-3-carboxamide] the figure was 2 nM; with `O=C(NC1CC(=O)N(c2ccc(CN3CCCCC3)cc2)C1)c1cc(CCc2ccc(Cl)cc2)on1` (stereo not shown) [Compound F144, 5-[2-(4-chlorophenyl)ethyl]-N-[5-oxo-1-[4-(1-piperidylmethyl)phenyl]pyrrolidin-3-yl]isoxazole-3-carboxamide], 2 nM.
Regarding `O=C(N[C@H]1CC(=O)N(c2ccc(CN3CCCCC3)cc2)C1)c1cc(CCc2ccc(Cl)cc2)on1` [Compound F145, 5-[2-(4-chlorophenyl)ethyl]-N-[(3S)-5-oxo-1-[4-(1-piperidylmethyl)phenyl]pyrrolidin-3-yl]isoxazole-3-carboxamide], the concentration for half-maximal inhibition (IC50) came to 3 nM.
The figure for `O=C(Nc1nnc(CCC2CCCCC2)s1)C1CC(=O)N(c2ccc(CN3CCOCC3)cc2)C1` (stereo not shown) [Compound F147, N-[5-(2-cyclohexylethyl)-1,3,4-thiadiazol-2-yl]-1-[4-(morpholinomethyl)phenyl]-5-oxo-pyrrolidine-3-carboxamide] is 2 nM; for `CN(Cc1ccc(N2C[C@@H](C(=O)Nc3ccc(CCc4ccc(F)cc4)nn3)CC2=O)cc1)C1CCOC1` (stereo partly drawn) [Compound F148, (3S)-N-[6-[2-(4-fluorophenyl)ethyl]pyridazin-3-yl]-1-[4-[[methyl(tetrahydrofuran-3-yl)amino]methyl]phenyl]-5-oxo-pyrrolidine-3-carboxamide] it is 6 nM; for `O=C(Nc1ccc(CCc2ccc(F)cc2)nn1)C1CC(=O)N(c2ccc(CN3CCOCC3)cc2)C1` (stereo not shown) [Compound F149, 1-(4-morpholin-4-ylmethyl-phenyl)-5-oxo-pyrrolidine-3-carboxylic acid {6-[2-(4-fluoro-phenyl)-ethyl]-pyridazin-3-yl}-amide] it is 7 nM.
On to `COc1ccc(CCc2nnc(NC(=O)C3CC(=O)N(c4ccc(CN5CCOCC5)cc4)C3)s2)cc1` (stereo not shown) [Compound F150, N-[5-[2-(4-methoxyphenyl)ethyl]-1,3,4-thiadiazol-2-yl]-1-[4-(morpholinomethyl)phenyl]-5-oxo-pyrrolidine-3-carboxamide], for which the IC50 was determined as 8 nM.
The figure for `O=C(Nc1nnc(CCc2ccc(Cl)cc2)s1)C1CC(=O)N(c2ccc(CN3CCCC3)cc2)C1` (stereo not shown) [Compound F151, N-[5-[2-(4-chlorophenyl)ethyl]-1,3,4-thiadiazol-2-yl]-5-oxo-1-[4-(pyrrolidin-1-ylmethyl)phenyl] pyrrolidine-3-carboxamide] is 9 nM.
With `CN(Cc1ccc(N2C[C@@H](C(=O)Nc3cc(CCc4ccc(Cl)cc4)on3)CC2=O)cc1)C1CCOC1` (stereo partly drawn) [Compound F152, (3S)-N-[5-[2-(4-chlorophenyl)ethyl]isoxazol-3-yl]-1-[4-[[methyl(tetrahydrofuran-3-yl)amino]methyl]phenyl]-5-oxo-pyrrolidine-3-carboxamide] the figure was 2 nM.
The figure for `O=C1CC(CNc2nnc(CCc3ccc(Cl)cc3)s2)CN1c1ccc(CN2CCOCC2)cc1` (stereo not shown) [Compound F153, 4-({5-[2-(4-Chloro-phenyl)-ethyl]-[1,3,4]thiadiazol-2-ylamino}-methyl)-1-(4-morpholin-4-ylmethyl-phenyl)-pyrrolidin-2-one] is 2 nM.
